According to US10238743B2 (Merck Sharp & Dohme Corp., priority 2014, dated 2019):
pKi: −log10 of the molar value.

How the values were obtained:
[1] = molecular target: soluble human BACE1 catalytic domain (Homo sapiens (Human), UniProt P56817); experiment: BACE1 HTRF FRET Assay; assay type: biochemical; details: Ki calculated from IC50 using the Cheng-Prusoff equation; QSY7-APPswe-Eu substrate, pH 5.0; read-out: BACE-1 Ki
From the text: Na^+-Acetate pH 5.0; 1% Brij-35; Glycerol; Dimethyl Sulfoxide (DMSO); Recombinant human soluble BACE1 catalytic domain (>95% pure); APP Swedish mutant peptide substrate (QSY7-APP^swe-Eu): QSY7-EISEVNLDAEFC-Europium-amide.
A homogeneous time-resolved FRET assay can be used to determine IC50 values for inhibitors of the soluble human BACE1 catalytic domain. This assay monitors the increase of 620 nm fluorescence that resulted from BACE1 cleavage of an APPswedish APP^swe mutant peptide FRET substrate (QSY7-EISEVNLDAEFC-Europium-amide). This substrate contains an N-terminal QSY7 moiety that serves as a quencher of the C-terminal Europium fluorophore (620 nm Em). In the absence of enzyme activity, 620 nm fluorescence is low in the assay and increased linearly over 3 hours in the presence of uninhibited BACE1 enzyme. Inhibition of BACE1 cleavage of the QSY7-APP^swe-Eu substrate by inhibitors is manifested as a suppression of 620 nm fluorescence.
Varying concentrations of inhibitors at 3× the final desired concentration in a volume of 10 ul are preincubated with purified human BACE1 catalytic domain (3 nM in 10 μl) for 30 minutes at 30° C. in reaction buffer containing 20 mM Na-Acetate pH 5.0, 10% glycerol, 0.1% Brij-35 and 7.5% DSMO. Reactions are initiated by addition of 10 μl of 600 nM QSY7-APP^swe-Eu substrate (200 nM final) to give a final reaction volume of 30 μl in a 384 well Nunc HTRF plate. The reactions are incubated at 30° C. for 1.5 hours. The 620 nm fluorescence is then read on a Rubystar HTRF plate reader (BMG Labtechnologies) using a 50 millisecond delay followed by a 400 millisecond acquisition time window. Inhibitor IC50 values are derived from non-linear regression analysis of concentration response curves. Ki values are then calculated from IC50 values using the Cheng-Prusoff equation using a previously determined […] of 8 μM for the QSY7-APP^swe-Eu substrate at BACE1.

[2] = molecular target: purified human autoBACE-2 (Homo sapiens (Human), UniProt Q9Y5Z0); experiment: BACE-2 Assay (BACE-HTRF assay); assay type: biochemical; details: Ki calculated from IC50 using the Cheng-Prusoff equation; QSY7-EISEVNLDAEFC-Eu-amide substrate, pH 5.0
Description: Inhibitor IC50s at purified human autoBACE-2 are determined in a time-resolved endpoint proteolysis assay that measures hydrolysis of the QSY7-[…]-Eu-amide FRET peptide substrate (BACE-HTRF assay). […] DMSO is present at 5% final concentration in the assay. Following laser excitation of sample wells at 320 nm, the fluorescence signal at 620 nm is collected for 400 ms following a 50 μs delay on a RUBYstar HTRF plate reader (BMG Labtechnologies). Raw RFU data is normalized to maximum (1.0 nM BACE/DMSO) and minimum (no enzyme/DMSO) RFU values. […] The Ki values are calculated from the IC50 using the Cheng-Prusoff equation.

purified human autoBACE-2, sequence (Q9Y5Z0 63-473 limits assumed): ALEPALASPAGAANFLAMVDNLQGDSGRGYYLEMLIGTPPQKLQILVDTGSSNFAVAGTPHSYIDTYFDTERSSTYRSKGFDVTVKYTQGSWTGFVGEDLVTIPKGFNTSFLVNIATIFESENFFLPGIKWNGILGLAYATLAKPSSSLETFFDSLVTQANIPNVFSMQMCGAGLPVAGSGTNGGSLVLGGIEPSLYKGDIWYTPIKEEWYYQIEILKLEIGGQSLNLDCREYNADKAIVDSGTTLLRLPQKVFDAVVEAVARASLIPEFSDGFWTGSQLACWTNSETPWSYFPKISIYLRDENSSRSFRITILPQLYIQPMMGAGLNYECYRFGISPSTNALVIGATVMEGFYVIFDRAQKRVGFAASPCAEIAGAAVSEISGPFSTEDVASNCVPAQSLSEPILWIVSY
soluble human BACE1 catalytic domain, sequence (P56817 75-416): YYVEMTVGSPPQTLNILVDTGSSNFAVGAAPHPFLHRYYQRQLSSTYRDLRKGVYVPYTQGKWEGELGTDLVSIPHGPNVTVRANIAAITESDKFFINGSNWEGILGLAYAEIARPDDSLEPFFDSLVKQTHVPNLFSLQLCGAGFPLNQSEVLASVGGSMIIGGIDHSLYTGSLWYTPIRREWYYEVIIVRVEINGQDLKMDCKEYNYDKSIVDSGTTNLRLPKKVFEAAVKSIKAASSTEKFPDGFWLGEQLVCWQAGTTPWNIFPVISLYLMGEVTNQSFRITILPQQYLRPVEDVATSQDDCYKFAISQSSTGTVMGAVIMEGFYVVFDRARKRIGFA

Row | SMILES | pKi [1] | pKi [2]
1 | COc1cnc2c(Nc3ccc4c(c3)[C@@]3(C)NC(=N)N(C)S(=O)(=O)[C@H]3CCC4)nccc2n1 [Example 44, (4aS,11bR)-2-imino-10-((2-methoxypyrido[3,4-b]pyrazin-5-yl)amino)-3,11b-dimethyl-1,2,3,4a,5,6,7,11b-octahydrobenzo[6,7]cyclohepta[1,2-e][1,2,4]-thiadiazine 4,4-dioxide] | 7.35 | 6.76
2 | Cc1cc(C#N)cnc1C(=O)Nc1ccc2c(c1)[C@@]1(C)NC(=N)N(C)S(=O)(=O)[C@H]1CCC2 [Example 35, 5-cyano-N-((4aS,11bR)-2-imino-3,11b-dimethyl-4,4-dioxido-1,2,3,4a,5,6,7,11b-octahydrobenzo[6,7]cyclohepta[1,2-e][1,2,4]thiadiazin-10-yl)-3-methylpicolinamide] | 7.72 | 8.00
3 | CN1C(=N)N[C@]2(C)c3cc(NC4CCCC4)ccc3OCC[C@@H]2S1(=O)=O [Example 47, (4aS,11bR)-10-(cyclopentylamino)-2-imino-3,11b-dimethyl-2,3,4a,5,6,11b-hexahydro-1H-benzo[2,3]oxepino[4,5-e][1,2,4]thiadiazine 4,4-dioxide] | 6.46 | 6.15
4 | Cc1cc(F)cnc1C(=O)Nc1ccc2c(c1)[C@@]1(C)NC(=N)N(C)S(=O)(=O)[C@H]1CCC2 [Example 31, 5-fluoro-N-((4aS,11bR)-2-imino-3,11b-dimethyl-4,4-dioxido-1,2,3,4a,5,6,7,11b-octahydrobenzo[6,7]cyclohepta[1,2-e][1,2,4]thiadiazin-10-yl)-3-methylpicolinamide] | 7.72 | 8.00
5 | CN1C(=N)N[C@]2(C)c3cc(NC(=O)c4ccc(F)cn4)ccc3CCC[C@@H]2S1(=O)=O [Example 28, 5-fluoro-N-((4aS,11bR)-2-imino-3,11b-dimethyl-4,4-dioxido-1,2,3,4a,5,6,7,11b-octahydrobenzo[6,7]cyclohepta[1,2-e][1,2,4]thiadiazin-10-yl)picolinamide] | 7.74 | 8.15
6 | Cc1nc(C(=O)Nc2ccc3c(c2)[C@@]2(C)NC(=N)N(C)S(=O)(=O)[C@@H]2CCO3)c(C)o1 [Example 3, N-((4aR,11bR)-2-imino-3,11b-dimethyl-4,4-dioxido-2,3,4a,5,6,11b-hexahydro-1H-benzo[2,3]oxepino[4,5-e][1,2,4]thiadiazin-10-yl)-2,5-dimethyloxazole-4-carboxamide] | 6.58 | 6.42
7 | CN1C(=N)N[C@]2(C)c3cc(NC(=O)c4ccccn4)ccc3OCC[C@H]2S1(=O)=O [Example 2, N-((4aR,11bR)-2-imino-3,11b-dimethyl-4,4-dioxido-2,3,4a,5,6,11b-hexahydro-1H-benzo[2,3]oxepino[4,5-e][1,2,4]thiadiazin-10-yl)picolinamide] | 6.29 | 6.55
8 | CN1C(=N)N[C@]2(C)c3cc(NC(=O)c4ccc(OC(F)(F)F)cn4)ccc3OCC[C@@H]2S1(=O)=O [Example 19, N-((4aS,11bR)-2-imino-3,11b-dimethyl-4,4-dioxido-2,3,4a,5,6,11b-hexahydro-1H-benzo[2,3]oxepino[4,5-e][1,2,4]thiadiazin-10-yl)-5-(trifluoromethoxy)picolinamide] | 8.10 | 6.98
9 | CN1C(=N)N[C@]2(C)c3cc(NC(=O)c4ccc(C#N)cn4)ccc3CCC[C@@H]2S1(=O)=O [Example 36] | 8.40 | 7.60
10 | CN1C(=N)N[C@]2(C)c3cc(NC(=O)c4ccc(Cl)cn4)ccc3OCC[C@H]2S1(=O)=O [Example 1, 5-chloro-N-((4aR,11bR)-2-imino-3,11b-dimethyl-4,4-dioxido-2,3,4a,5,6,11b-hexahydro-1H-benzo[2,3]oxepino[4,5-e][1,2,4]thiadiazin-10-yl)picolinamide] | 7.14 | 7.19
11 | CN1C(=N)N[C@]2(C)c3cc(NC(=O)c4ccc(C#N)cn4)ccc3OCC[C@@H]2S1(=O)=O [Example 16, 5-cyano-N-((4aS,11bR)-2-imino-3,11b-dimethyl-4,4-dioxido-2,3,4a,5,6,11b-hexahydro-1H-benzo[2,3]oxepino[4,5-e][1,2,4]thiadiazin-10-yl)picolinamide] | 9.00 | 7.85
12 | CN1C(=N)N[C@]2(C)c3cc(NC(=O)c4ncc(Cl)cc4F)ccc3CCC[C@@H]2S1(=O)=O [Example 25, 5-chloro-3-fluoro-N-((4aS,11bR)-2-imino-3,11b-dimethyl-4,4-dioxido-1,2,3,4a,5,6,7,11b-octahydrobenzo[6,7]cyclohepta[1,2-e][1,2,4]thiadiazin-10-yl)picolinamide] | 8.15 | 8.30
13 | Cc1ccc(C(=O)Nc2ccc3c(c2)[C@@]2(C)NC(=N)N(C)S(=O)(=O)[C@H]2CCO3)nc1 [Example 17, N-((4aS,11bR)-2-imino-3,11b-dimethyl-4,4-dioxido-2,3,4a,5,6,11b-hexahydro-1H-benzo[2,3]oxepino[4,5-e][1,2,4]thiadiazin-10-yl)-5-methylpicolinamide] | 7.74 | 7.80
14 | Cc1cnc(C(=O)Nc2ccc3c(c2)[C@@]2(C)NC(=N)N(C)S(=O)(=O)[C@H]2CCC3)cn1 [Example 24, N-((4aS,11bR)-2-imino-3,11b-dimethyl-4,4-dioxido-1,2,3,4a,5,6,7,11b-octahydrobenzo[6,7]cyclohepta[1,2-e][1,2,4]thiadiazin-10-yl)-5-methylpyrazine-2-carboxamide] | 6.77 | 6.60
15 | C#CCOc1ccc(C(=O)Nc2ccc3c(c2)[C@@]2(C)NC(=N)N(C)S(=O)(=O)[C@@H]2CCO3)nc1 [Example 6, N-((4aR,11bR)-2-imino-3,11b-dimethyl-4,4-dioxido-2,3,4a,5,6,11b-hexahydro-1H-benzo[2,3]oxepino[4,5-e][1,2,4]thiadiazin-10-yl)-5-(prop-2-yn-1-yloxy)picolinamide] | 7.60 | 6.00
16 | CN1C(=N)N[C@]2(C)c3cc(NC(=O)c4ccc(OC(F)F)cn4)ccc3CCC[C@@H]2S1(=O)=O [Example 22, 5-(difluoromethoxy)-N-((4aS,11bR)-2-imino-3,11b-dimethyl-4,4-dioxido-1,2,3,4a,5,6,7,11b-octahydrobenzo[6,7]cyclohepta[1,2-e][1,2,4]thiadiazin-10-yl)picolinamide] | 8.00 | 7.05
17 | COc1cnc(C(=O)Nc2ccc3c(c2)[C@@]2(C)NC(=N)N(C)S(=O)(=O)[C@H]2CCC3)c(C)c1 [Example 32, N-((4aS,11bR)-2-imino-3,11b-dimethyl-4,4-dioxido-1,2,3,4a,5,6,7,11b-octahydrobenzo[6,7]cyclohepta[1,2-e][1,2,4]thiadiazin-10-yl)-5-methoxy-3-methylpicolinamide] | 7.57 | 7.47
18 | Cc1cc(F)cnc1C(=O)Nc1ccc2c(c1)[C@@]1(C)NC(=N)N(C)S(=O)(=O)[C@@H]1CCO2 [Example 8, 5-fluoro-N-((4aR,11bR)-2-imino-3,11b-dimethyl-4,4-dioxido-2,3,4a,5,6,11b-hexahydro-1H-benzo[2,3]oxepino[4,5-e][1,2,4]thiadiazin-10-yl)-3-methylpicolinamide] | 6.88 | 7.07
19 | COc1cnc2c(Nc3ccc4c(c3)[C@@]3(C)NC(=N)N(C)S(=O)(=O)[C@H]3CCO4)nccc2n1 [Example 41, (4aS,11bR)-2-imino-10-((2-methoxypyrido[3,4-b]pyrazin-5-yl)amino)-3,11b-dimethyl-2,3,4a,5,6,11b-hexahydro-1H-benzo[2,3]oxepino[4,5-e][1,2,4]-thiadiazine 4,4-dioxide] | 7.22 | 6.87
20 | CN1C(=N)N[C@]2(C)c3cc(NC(=O)c4ccc(F)cn4)ccc3CCC[C@H]2S1(=O)=O [Example 37, 5-fluoro-N-((4aR,11bR)-2-imino-3,11b-dimethyl-4,4-dioxido-1,2,3,4a,5,6,7,11b-octahydrobenzo[6,7]cyclohepta[1,2-e][1,2,4]thiadiazin-10-yl)picolinamide] | 6.80 | 7.02
21 | Cc1ccc(C(=O)Nc2ccc3c(c2)[C@@]2(C)NC(=N)N(C)S(=O)(=O)[C@H]2CCC3)nc1 [Example 21, N-((4aS,11bR)-2-imino-3,11b-dimethyl-4,4-dioxido-1,2,3,4a,5,6,7,11b-octahydrobenzo[6,7]cyclohepta[1,2-e][1,2,4]thiadiazin-10-yl)-5-methylpicolinamide] | 7.35 | 7.47
